Patent US9072770B2, “Aqueous extracts of Anoectochilus spp. kinsenoside and pharmaceutical compositions useful for hepatoprotection” (CHINA MEDICAL UNIVERSITY, priority 2007, dated 2015)
Marks after values point to notes of the source that are not given here.

System: BALB/c normal liver (BNL) cells
Test: Hydrogen peroxide cytotoxicity assay in BNL cells
Type: cell-based, BALB/c mouse
Settings: then H2O2 2 hours, control 0.69
Procedure: BALB/c normal liver (BNL) cells were purchased from Bioresources Collection and Research Center (Hsinchu, Taiwan). Cell lines were grown in DMEM (Dulbecco's modified Eagle's medium) with 50 IU/mL penicillin, 50 μg/mL streptomycin, 50 IU/mL amphotericin B and 10% fetal bovine serum. For cytotoxicity assays, cells (5×10^3 cells/well) were plated into 96-well culture plates and allowed to attach overnight. The medium was replaced with fresh medium (as control) or with various concentrations of AFEW, AFEW-1 or kinsenoside for 16 hours. The cells were then washed with PBS and further treated with various doses of hydrogen peroxide (0.125-4.00 μM) for 2 hours. After H2O2 cytotoxic treatment, the percentage of viable cells was determined using a CellTiter 96 Aqueous Non-Radioactive Cell Proliferation Assay kit (Promega, Madison, Wis., USA). Reagent solution (20 μt) was added to each well and incubated at 37° C. in humidified 5% CO2 for 1 hour. Then, the absorbance was measured at 490 nm using a 96-well plate reader (Multiskan Spectrum, Labsystem, Thermo Electron Corporation, Finland).
Data from in vivo experiments were treated by one-way analysis of variance and Dunnett's test was applied. The significance level was set at p[…]00.05. […]

How did the “H2O2 LD50 (95% confidence limits)” value (pretreatment 20 μg/mL for 16 hours) turn out when O=C1C[C@@H](OC2OC(CO)C(O)C(O)C2O)CO1 (stereo partly drawn) [Kinsenoside, 3-(R)-3-β-D-glucopyranosyloxybutanolide] was run?
The value was 0.81 (0.74-0.88)^a μM.

And the “H2O2 LD50 (95% confidence limits)” value (pretreatment 40 μg/mL for 16 hours)?
Its value is 1.17 (1.01-1.36)^a μM.
